Source: ChEMBL document CHEMBL1142902, “Inhibition of FLT3 and PDGFR tyrosine kinase activity by bis(benzo[b]furan-2-yl)methanones” (Bioorg Med Chem, 2007)

Legend:
[1] = biological target: Platelet-derived growth factor receptor beta (Mus musculus, UniProt P05622); assay: Inhibition of endogenous PDGFRbeta autophosphorylation in Swiss 3T3 fibroblasts
[2] = biological target: T1, Receptor-type tyrosine-protein kinase FLT3 (Homo sapiens, UniProt P36888); assay: Inhibition of endogenous FLT3 autophosphorylation in EOL1 cells; type: cell-based
T1 sequence (P36888 whole entry): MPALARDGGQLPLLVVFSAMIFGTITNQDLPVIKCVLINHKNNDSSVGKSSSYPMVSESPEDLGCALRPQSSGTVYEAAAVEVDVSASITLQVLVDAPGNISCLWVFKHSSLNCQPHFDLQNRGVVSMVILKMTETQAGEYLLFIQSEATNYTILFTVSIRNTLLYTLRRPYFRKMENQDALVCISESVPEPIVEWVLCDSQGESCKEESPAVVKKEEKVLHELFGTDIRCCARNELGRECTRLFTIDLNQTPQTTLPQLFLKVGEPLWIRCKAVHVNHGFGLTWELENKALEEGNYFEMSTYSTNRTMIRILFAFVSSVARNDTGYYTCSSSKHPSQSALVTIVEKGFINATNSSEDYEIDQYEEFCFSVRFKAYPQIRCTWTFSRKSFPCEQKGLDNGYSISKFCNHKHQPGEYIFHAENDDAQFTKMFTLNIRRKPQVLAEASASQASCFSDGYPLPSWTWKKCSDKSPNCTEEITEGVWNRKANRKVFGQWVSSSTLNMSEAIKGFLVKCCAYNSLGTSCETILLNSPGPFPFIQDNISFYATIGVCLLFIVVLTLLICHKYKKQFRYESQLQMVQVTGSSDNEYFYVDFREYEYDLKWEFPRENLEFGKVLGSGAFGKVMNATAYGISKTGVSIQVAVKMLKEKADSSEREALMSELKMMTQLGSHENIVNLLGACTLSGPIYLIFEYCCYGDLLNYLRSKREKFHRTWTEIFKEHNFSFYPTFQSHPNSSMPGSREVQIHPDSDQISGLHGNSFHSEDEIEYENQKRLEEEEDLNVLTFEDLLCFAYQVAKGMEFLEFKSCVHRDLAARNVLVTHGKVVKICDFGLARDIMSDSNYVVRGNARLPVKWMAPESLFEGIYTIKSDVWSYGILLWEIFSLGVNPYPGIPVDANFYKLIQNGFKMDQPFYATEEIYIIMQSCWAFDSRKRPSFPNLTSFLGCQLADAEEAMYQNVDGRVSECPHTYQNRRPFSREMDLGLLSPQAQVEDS

Platelet-derived growth factor receptor beta, sequence (P05622 whole entry): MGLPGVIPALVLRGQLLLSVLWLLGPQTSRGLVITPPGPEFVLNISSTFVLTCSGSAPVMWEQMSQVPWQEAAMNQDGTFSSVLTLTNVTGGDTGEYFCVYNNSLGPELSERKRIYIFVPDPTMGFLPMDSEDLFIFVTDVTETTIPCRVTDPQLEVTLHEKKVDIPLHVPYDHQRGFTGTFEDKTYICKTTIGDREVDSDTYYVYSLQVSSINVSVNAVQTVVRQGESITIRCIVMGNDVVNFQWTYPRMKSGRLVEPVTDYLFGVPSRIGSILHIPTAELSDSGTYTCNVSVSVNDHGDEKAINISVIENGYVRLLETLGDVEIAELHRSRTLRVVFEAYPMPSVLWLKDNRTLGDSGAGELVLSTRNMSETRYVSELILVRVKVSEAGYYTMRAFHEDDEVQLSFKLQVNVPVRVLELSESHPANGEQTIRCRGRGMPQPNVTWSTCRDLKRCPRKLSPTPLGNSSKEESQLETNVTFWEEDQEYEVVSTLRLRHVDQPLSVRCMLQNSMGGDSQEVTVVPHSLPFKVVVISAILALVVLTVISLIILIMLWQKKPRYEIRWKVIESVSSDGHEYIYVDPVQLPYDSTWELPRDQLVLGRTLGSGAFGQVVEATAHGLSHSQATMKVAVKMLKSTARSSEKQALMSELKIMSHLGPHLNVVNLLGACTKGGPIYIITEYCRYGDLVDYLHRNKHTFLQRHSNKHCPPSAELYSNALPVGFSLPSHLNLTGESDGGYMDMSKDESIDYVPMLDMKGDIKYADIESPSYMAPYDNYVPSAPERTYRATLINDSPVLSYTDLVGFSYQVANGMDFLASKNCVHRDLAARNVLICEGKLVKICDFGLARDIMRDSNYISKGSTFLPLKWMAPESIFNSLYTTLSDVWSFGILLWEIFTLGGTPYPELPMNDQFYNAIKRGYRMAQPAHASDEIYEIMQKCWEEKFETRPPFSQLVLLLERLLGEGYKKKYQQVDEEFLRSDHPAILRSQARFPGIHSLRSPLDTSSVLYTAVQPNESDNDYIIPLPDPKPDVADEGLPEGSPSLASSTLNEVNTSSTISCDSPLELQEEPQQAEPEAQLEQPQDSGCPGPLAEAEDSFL

IC50 [1]	IC50 [2]	Compound
1 µM	> 30 µM	COc1ccc2oc(C(=O)c3cc4cc(OC)ccc4o3)cc2c1
> 30 µM	> 30 µM	COc1ccc2cc(C(=O)c3cc4ccc(OC)cc4o3)oc2c1
9.7 µM		O=C(c1cc2ccc(O)cc2o1)c1cc2ccc(O)cc2o1
0.7 µM		CC(=O)Oc1ccc2oc(C(=O)c3cc4cc(OC(C)=O)ccc4o3)cc2c1
5.4 µM		Cc1cc2ncc(-c3ccccc3)nc2cc1C [AG1295]

More lines, now with the values behind:

Compound	IC50 [1]	IC50 [2]
O=C(c1cc2cc(O)ccc2o1)c1cc2cc(O)ccc2o1	0.6 µM	
O=C(c1cc2cccc(O)c2o1)c1cc2cccc(O)c2o1	20 µM	> 30 µM
O=C(c1cc2ccccc2[nH]1)c1cc2ccccc2o1	1.07 µM	
O=C(c1cc2cc(O)ccc2[nH]1)c1cc2cc(O)ccc2o1	0.2 µM	
O=C(c1cc2ccccc2o1)c1cc2ccccc2o1	1.2 µM	
Nc1ccc2oc(C(=O)c3cc4cc(N)ccc4o3)cc2c1	1.2 µM	
COc1cccc2oc(C(=O)c3cc4c(OC)cccc4o3)cc12	> 30 µM	> 30 µM
COc1cccc2cc(C(=O)c3cc4cccc(OC)c4o3)oc12	> 30 µM	> 30 µM
